This note sets out measurements from patent US20090029366A1 (priority 2007, published 2009).

Each structure is given as a SMILES string. Read-outs that look alike come from different tables or passages of the source.

In one assay the target is T1, human HCN2 channel (Homo sapiens, UniProt Q9UL51).
T1 construct: expressed in transfected cells; host or cells: HEK-293H (clones #4, #8, #11, #12)
T1 sequence (Q9UL51 1-889): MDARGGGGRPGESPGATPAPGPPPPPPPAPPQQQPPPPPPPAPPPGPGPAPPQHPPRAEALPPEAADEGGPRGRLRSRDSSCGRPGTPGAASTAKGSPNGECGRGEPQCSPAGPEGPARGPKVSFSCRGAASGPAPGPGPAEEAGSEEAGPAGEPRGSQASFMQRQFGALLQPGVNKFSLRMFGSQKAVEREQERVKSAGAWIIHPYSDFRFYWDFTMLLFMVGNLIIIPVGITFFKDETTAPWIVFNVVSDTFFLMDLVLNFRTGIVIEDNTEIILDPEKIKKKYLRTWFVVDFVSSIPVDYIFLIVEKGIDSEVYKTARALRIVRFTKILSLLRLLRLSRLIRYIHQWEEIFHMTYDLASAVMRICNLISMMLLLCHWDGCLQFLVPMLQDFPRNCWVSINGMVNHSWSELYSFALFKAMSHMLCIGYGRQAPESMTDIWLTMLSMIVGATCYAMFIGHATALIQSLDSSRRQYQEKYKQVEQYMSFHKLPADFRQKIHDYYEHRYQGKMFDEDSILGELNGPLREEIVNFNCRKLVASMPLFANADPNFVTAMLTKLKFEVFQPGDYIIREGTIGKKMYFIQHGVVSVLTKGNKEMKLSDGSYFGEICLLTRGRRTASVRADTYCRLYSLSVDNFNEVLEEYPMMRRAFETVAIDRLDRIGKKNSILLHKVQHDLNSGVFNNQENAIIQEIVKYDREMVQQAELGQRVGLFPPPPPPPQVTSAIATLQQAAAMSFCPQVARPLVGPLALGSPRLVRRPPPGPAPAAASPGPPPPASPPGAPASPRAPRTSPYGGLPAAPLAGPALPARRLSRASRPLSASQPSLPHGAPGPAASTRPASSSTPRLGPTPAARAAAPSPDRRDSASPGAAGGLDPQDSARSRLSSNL
The experiment in a line: MPSD FLIPR 384 assay on HEK-293H clones expressing HCN2. Format: cell-based. The conditions noted are these: 30 μM ZD7288. As for the experimental part: HEK-293H cells were transfected with constructs encoding a human HCN2 channel essentially as described in Example 1. Cell lines were generated from a single clone according to standard protocols. The cells were incubated in HBSS/MPSD (control cells) or HBSS/MPSD and 30 μM ZD7288 (test cells) using a 384 well plate format, followed by the addition of the sodium/potassium diluent solution essentially as described in Examples 3 and 5. FIGS. 14A-14D show the effect of ZD7288 on each of the four clones expressing HCN2 channels. FIGS. 14A (clone #4), 14B (clone #8), 14C (clone #11), and 14D (clone #12) each depict the change in fluorescence over time for cells incubated in saline only (overlaid lower traces ) and for cells incubated in saline containing the HCN channel inhibitor ZD7288 (overlaid upper traces ). […] The Z-factor was between 0.56 and 0.64, and the covariance (CV) was between from 6.6 to 9.9.

A further assay has as its target T2, human HCN4 channel (Homo sapiens, UniProt Q9Y3Q4).
T2 construct: expressed in transfected cells; host or cells: CHO-K1
T2 sequence (Q9Y3Q4 1-1203): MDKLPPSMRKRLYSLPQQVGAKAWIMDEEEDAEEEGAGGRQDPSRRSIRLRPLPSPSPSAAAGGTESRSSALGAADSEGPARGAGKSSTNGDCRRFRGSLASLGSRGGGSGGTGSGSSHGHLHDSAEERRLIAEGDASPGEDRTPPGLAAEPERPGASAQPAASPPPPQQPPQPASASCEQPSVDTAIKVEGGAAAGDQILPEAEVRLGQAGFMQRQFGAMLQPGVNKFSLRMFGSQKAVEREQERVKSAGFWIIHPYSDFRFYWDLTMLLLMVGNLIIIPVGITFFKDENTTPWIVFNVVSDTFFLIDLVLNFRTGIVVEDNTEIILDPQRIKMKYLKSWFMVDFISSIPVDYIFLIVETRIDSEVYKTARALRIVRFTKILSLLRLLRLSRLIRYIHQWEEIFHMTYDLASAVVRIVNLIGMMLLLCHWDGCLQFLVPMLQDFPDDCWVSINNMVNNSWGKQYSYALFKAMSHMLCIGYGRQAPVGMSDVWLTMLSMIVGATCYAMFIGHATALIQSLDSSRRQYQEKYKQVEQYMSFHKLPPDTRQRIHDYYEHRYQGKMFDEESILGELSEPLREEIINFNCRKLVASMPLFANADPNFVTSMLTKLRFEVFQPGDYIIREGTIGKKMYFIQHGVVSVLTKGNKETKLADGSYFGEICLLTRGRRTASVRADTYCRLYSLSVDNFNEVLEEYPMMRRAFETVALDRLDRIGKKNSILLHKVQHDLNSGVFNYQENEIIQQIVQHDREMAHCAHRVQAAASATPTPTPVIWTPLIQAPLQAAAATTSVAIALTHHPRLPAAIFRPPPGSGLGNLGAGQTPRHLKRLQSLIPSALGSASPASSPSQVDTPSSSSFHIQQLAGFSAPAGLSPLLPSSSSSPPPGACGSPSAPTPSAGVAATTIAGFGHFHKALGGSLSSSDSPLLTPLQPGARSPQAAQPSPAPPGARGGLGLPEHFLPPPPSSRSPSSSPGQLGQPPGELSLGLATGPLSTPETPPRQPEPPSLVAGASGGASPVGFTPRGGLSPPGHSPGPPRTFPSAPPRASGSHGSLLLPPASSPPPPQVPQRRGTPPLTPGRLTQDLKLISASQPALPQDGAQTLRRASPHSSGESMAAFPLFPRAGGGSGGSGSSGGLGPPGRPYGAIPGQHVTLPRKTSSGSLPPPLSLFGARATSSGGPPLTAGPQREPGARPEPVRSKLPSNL
The experiment in a line: Dose response of blockade of hyperpolarization (MPSD FLIPR), HCN4. Format: cell-based. How it is done: HEK-293H cells stably expressing a human HCN1 channel were plated and incubated in HBSS essentially as described in Examples 3 and 5. CHO-K1 cells stably expressing a human HCN4 channel were plated and incubated in HBSS essentially as described in Example 6. Varying concentrations of ZD7288 were added to HBSS for each of the test wells to determine the dose response of cells expressing HCN1 or HCN4 channels. The percent inhibition of hyperpolarization was calculated for a single dose using the following equation:
The data were fit with a Hill equation as described by the ratio 1/(1+([test agent]/IC50)^k, where IC50 is the concentration of a test agent required to inhibit one-half of the maximum current and k is the Hill coefficient.
Similarly, ZD7288 IC50 values on HCN4 channel were determined in a set of two experiments. […] No statistical difference was found between the two experiments.

`CCN(c1ccccc1)c1cc(=NC)n(C)c(C)n1.Cl` [ZD7288]: at human HCN2 channel (384 well, clones #4, #8, #11, #12), the “blockade of hyperpolarization for each of the HCN2 clones” value is reported as “effectively blocked hyperpolarization”. In addition, the “Δfluorescence (saline + ZD7288), Mean” value is −2392 RFU at human HCN2 channel (Clone #4, saline only −24421); −3006 RFU at human HCN2 channel (Clone #8, saline only −23600); −2413 RFU at human HCN2 channel (Clone #11, saline only −25477); −4834 RFU on human HCN2 channel (Clone #12, saline only −26367). Besides, the IC50 came to 9.07 µM on human HCN4 channel (CHO-K1, group 1, n=8, mean ± 2.31 μM, read-out: IC50 mean, group 1) and 9.06 µM on human HCN4 channel (CHO-K1, group 2, n=8, mean ± 2.61 μM, read-out: IC50 mean, group 2).
